Source: patent US10800792B2, “Inhibitors of Bruton's tyrosine kinase and method of their use” (JANSSEN PHARMACEUTICA NV, priority 2015, dated 2020)

Each molecule was assayed against unphosphorylated-BTK kinase domain (UP-BTK), GST-tagged human BTK (389-659aa) (Homo sapiens (Human), UniProt Q06187) (assay: BTK kinase Lanthascreen binding assay). Conditions: Lanthascreen tracer competition, 60 minutes incubation; pIC50 = negative log of the IC50 in molar.
Method in brief: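 Lanthascreen competition binding; test compound vs fluorescent tracer on unphosphorylated BTK. Output: pIC50 (−log IC50, M).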

Chain of unphosphorylated-BTK kinase domain (UP-BTK), GST-tagged human BTK (389-659aa) (Q06187 389-659): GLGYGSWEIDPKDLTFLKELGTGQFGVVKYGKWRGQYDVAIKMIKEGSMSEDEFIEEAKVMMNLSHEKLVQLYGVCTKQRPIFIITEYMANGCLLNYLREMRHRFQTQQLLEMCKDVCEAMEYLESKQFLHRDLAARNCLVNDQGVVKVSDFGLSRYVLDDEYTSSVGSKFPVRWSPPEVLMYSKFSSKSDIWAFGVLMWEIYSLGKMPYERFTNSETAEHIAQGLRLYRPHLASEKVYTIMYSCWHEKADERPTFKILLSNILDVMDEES

Compared with `O=C(N[C@@H]1CCCNC1)c1sc2nccc3c2c1NC(=O)N3c1ccnc(C2CCCC2)c1` [Example 720, (R)-5-(2-Cyclopentylpyridin-4-yl)-4-oxo-N-(piperidin-3-yl)-4,5-dihydro-3H-1-thia-3,5,8-triazaacenaphthylene-2-carboxamide], `C=CC(=O)N1CCC[C@@H](NC(=O)c2sc3nccc4c3c2NC(=O)N4c2ccnc(C3CCC3)c2)C1` [Example 591, (R)—N-(1-Acryloylpiperidin-3-yl)-5-(2-cyclobutylpyridin-4-yl)-4-oxo-4,5-dihydro-3H-1-thia-3,5,8-triazaacenaphthylene-2-carboxamide] is higher in “BTK_I_binding pIC50” value: 6.2 for the first, 7.5 for the second.

Same assay, conditions: pIC50 = negative log of the IC50 in molar; 60 minutes incubation, 50 nM Tracer 236

`Cc1cc(Oc2ccccc2)ccc1N1C(=O)Nc2c(C(=O)N[C@H]3CN(C)C[C@H]3O)sc3nccc1c23` [Example 200, N-((3S,4R)-4-Hydroxy-1-methylpyrrolidin-3-yl)-5-(2-methyl-4-phenoxyphenyl)-4-oxo-4,5-dihydro-3H-1-thia-3,5,8-triazaacenaphthylene-2-carboxamide] and `Cc1cc(Oc2ccccc2)ccc1N1C(=O)Nc2c(C(=O)N[C@@H]3C[C@@H](F)CN(C)C3)sc3nccc1c23` [Example 160, N-((3R,5R)-5-Fluoro-1-methylpiperidin-3-yl)-5-(2-methyl-4-phenoxyphenyl)-4-oxo-4,5-dihydro-3H-1-thia-3,5,8-triazaacenaphthylene-2-carboxamide] are the same in “BTK_I_binding pIC50” value: 6.6 for the first, 6.6 for the second.

Compared with `C=CC(=O)N1CCC[C@@H](NC(=O)c2sc3nccc4c3c2NC(=O)N4c2ccccc2)C1` [Example 257, (R)—N-(1-Acryloylpiperidin-3-yl)-4-oxo-5-phenyl-4,5-dihydro-3H-1-thia-3,5,8-triazaacenaphthylene-2-carboxamide], `C=CC(=O)N1CCC[C@@H](NC(=O)c2sc3nccc4c3c2NC(=O)N4c2c(C)cc(Oc3ccccc3)cc2F)C1` [Example 20, (R)—N-(1-Acryloylpiperidin-3-yl)-5-(2-fluoro-6-methyl-4-phenoxyphenyl)-4-oxo-4,5-dihydro-3H-1-thia-3,5,8-triazaacenaphthylene-2-carboxamide] is higher in “BTK_I_binding pIC50” value: 6.4 for the first, 7.4 for the second.

`Cc1cc(Oc2ccccc2)ccc1N1C(=O)Nc2c(C(=O)N[C@H]3CNC[C@@H]3F)sc3nccc1c23` [Example 218, N-((3S,4S)-4-Fluoropyrrolidin-3-yl)-5-(2-methyl-4-phenoxyphenyl)-4-oxo-4,5-dihydro-3H-1-thia-3,5,8-triazaacenaphthylene-2-carboxamide] and `Cc1cc(Oc2ccccc2)ccc1N1C(=O)Nc2c(C(=O)N[C@@H]3CCN(C(C)C)C3)sc3nccc1c23` [Example 118, (R)—N-(1-Isopropylpyrrolidin-3-yl)-5-(2-methyl-4-phenoxyphenyl)-4-oxo-4,5-dihydro-3H-1-thia-3,5,8-triazaacenaphthylene-2-carboxamide] are within 0.2 log units of each other in “BTK_I_binding pIC50” value: 6.8 for the first, 6.9 for the second.

`COCCC(=O)N1CCC[C@@H](NC(=O)c2sc3nccc4c3c2NC(=O)N4c2ccc(Oc3ccccc3)cc2F)C1` [Example 215, (R)-5-(2-Fluoro-4-phenoxyphenyl)-N-(1-(3-methoxypropanoyl)piperidin-3-yl)-4-oxo-4,5-dihydro-3H-1-thia-3,5,8-triazaacenaphthylene-2-carboxamide] and `Cc1cc(Oc2ccccc2)ccc1N1C(=O)Nc2c(C(=O)N[C@@H]3CCCN(C(=O)CCN)C3)sc3nccc1c23` [Example 163, (R)—N-(1-(3-Aminopropanoyl)piperidin-3-yl)-5-(2-methyl-4-phenoxyphenyl)-4-oxo-4,5-dihydro-3H-1-thia-3,5,8-triazaacenaphthylene-2-carboxamide] are the same in “BTK_I_binding pIC50” value: 7.2 for the first, 7.2 for the second.

First: Cc1cc(Oc2ccccc2)ccc1N1C(=O)Nc2c(C(=O)N[C@@H]3CCCN(C(=O)CCO)C3)sc3nccc1c23 (single isomer, unassigned) [Example 99, (R)—N-(1-(3-Hydroxypropanoyl)piperidin-3-yl)-5-(*S)-(2-methyl-4-phenoxyphenyl)-4-oxo-4,5-dihydro-3H-1-thia-3,5,8-triazaacenaphthylene-2-carboxamide]
Second: Cc1cc(Oc2ccccc2)ccc1N1C(=O)Nc2c(C(=O)N[C@@H]3CCCN(C(=O)CN)C3)sc3nccc1c23 [Example 151, (R)—N-(1-(2-Aminoacetyl)piperidin-3-yl)-5-(2-methyl-4-phenoxyphenyl)-4-oxo-4,5-dihydro-3H-1-thia-3,5,8-triazaacenaphthylene-2-carboxamide]
The “BTK_I_binding pIC50” value of the first is higher: 7.6 for the first, 7.2 for the second.

First: Cc1cc(Oc2ccccc2)ccc1N1C(=O)Nc2c(C(=O)N[C@@H]3CCCN(C(=O)[C@@H]4CCN(C)C4)C3)sc3nccc1c23 [Example 145, 5-(2-Methyl-4-phenoxyphenyl)-N—((R)-1-((R)-1-methylpyrrolidine-3-carbonyl)piperidin-3-yl)-4-oxo-4,5-dihydro-3H-1-thia-3,5,8-triazaacenaphthylene-2-carboxamide]
Second: C=CC(=O)N1C[C@H](NC(=O)c2sc3nccc4c3c2NC(=O)N4c2ccc(Oc3ccccc3)cc2C)C[C@H](OC)C1 [Example 14, N-((3R,5S)-1-Acryloyl-5-methoxypiperidin-3-yl)-5-(2-methyl-4-phenoxyphenyl)-4-oxo-4,5-dihydro-3H-1-thia-3,5,8-triazaacenaphthylene-2-carboxamide]
The “BTK_I_binding pIC50” value of the first is lower: 7.0 for the first, 7.4 for the second.

With `C=CC(=O)N1CCC[C@@H](NC(=O)c2sc3nccc4c3c2NC(=O)N4c2ccc(S(F)(F)(F)(F)F)cc2C)C1` [Example 83, (R)—N-(1-Acryloylpiperidin-3-yl)-5-(2-methyl-4-(pentafluorothio)phenyl)-4-oxo-4,5-dihydro-3H-1-thia-3,5,8-triazaacenaphthylene-2-carboxamide] the “BTK_I_binding pIC50” value was 6.8.

Same assay, conditions: pIC50 = negative log of the IC50 in molar; 60 minutes incubation, 50 nM Tracer 236; read-out: BTK_I_binding pIC50 (converted)

In the case of `C=CC(=O)N1CC(OC)[C@@H](NC(=O)c2sc3nccc4c3c2NC(=O)N4c2ccc(Oc3ccccc3)cc2C)C1` (stereo in doubt) [Example 34, N-((3S,4R)-1-Acryloyl-4-methoxypyrrolidin-3-yl)-5-(2-methyl-4-phenoxyphenyl)-4-oxo-4,5-dihydro-3H-1-thia-3,5,8-triazaacenaphthylene-2-carboxamide], the IC50 is reported as 25.1 nM.

Same assay, conditions: unphosphorylated-BTK kinase domain, 50 nM Tracer 236, 60 minutes; pIC50 = negative log of the IC50 in molar

Compared with `C=CC(=O)N1CCC[C@@H](NC(=O)c2sc3nccc4c3c2NC(=O)N4c2cccc(OC3CCCCC3)c2)C1` [Example 560, (R)—N-(1-Acryloylpiperidin-3-yl)-5-(3-(cyclohexyloxy)phenyl)-4-oxo-4,5-dihydro-3H-1-thia-3,5,8-triazaacenaphthylene-2-carboxamide], `C=CC(=O)N1CCC[C@@H](NC(=O)c2sc3nccc4c3c2NC(=O)N4c2ccc(OC3CCC3)cc2C)C1` (single isomer, unassigned) [Example 501, (R)—N-(1-Acryloylpiperidin-3-yl)-5-(*S)-(4-cyclobutoxy-2-methylphenyl)-4-oxo-4,5-dihydro-3H-1-thia-3,5,8-triazaacenaphthylene-2-carboxamide] is higher in “BTK_I_binding pIC50” value: 7.6 for the first, 7.9 for the second.

First: C=CC(=O)N1CCC[C@@H](NC(=O)c2sc3nccc4c3c2NC(=O)N4c2ccc(OC(F)(F)F)cc2)C1 [Example 416, (R)—N-(1-Acryloylpiperidin-3-yl)-4-oxo-5-(4-(trifluoromethoxy)phenyl)-4,5-dihydro-3H-1-thia-3,5,8-triazaacenaphthylene-2-carboxamide]
Second: C/C=C\C(=O)N1CCC[C@@H](NC(=O)c2sc3nccc4c3c2NC(=O)N4c2ccc(Oc3ccccc3)cc2C)C1 (single isomer, unassigned) [Example 476, (R,*Z)—N-(1-(But-2-enoyl)piperidin-3-yl)-5-(*S)-(2-methyl-4-phenoxyphenyl)-4-oxo-4,5-dihydro-3H-1-thia-3,5,8-triazaacenaphthylene-2-carboxamide]
The “BTK_I_binding pIC50” value of the first is lower: 6.7 for the first, 7.4 for the second.

Compared with `CN[C@@H](C)C(=O)N1CCC[C@@H](NC(=O)c2sc3nccc4c3c2NC(=O)N4c2ccc(Oc3ccccc3)cc2C)C1` (single isomer, unassigned) [Example 524, 5-(*S)-(2-Methyl-4-phenoxyphenyl)-N—((R)-1-((S)-2-(methylamino)propanol)piperidin-3-yl)-4-oxo-4,5-dihydro-3H-1-thia-3,5,8-triazaacenaphthylene-2-carboxamide], `CN(C)CC(=O)N1CCC[C@@H](NC(=O)c2sc3nccc4c3c2NC(=O)N4c2ccc(Oc3ccccc3)c(Cl)c2)C1` [Example 572, (R)-5-(3-Chloro-4-phenoxyphenyl)-N-(1-(2-(dimethylamino)acetyl)piperidin-3-yl)-4-oxo-4,5-dihydro-3H-1-thia-3,5,8-triazaacenaphthylene-2-carboxamide] is lower in “BTK_I_binding pIC50” value: 7.8 for the first, 7.1 for the second.

Going from `Cc1cc(Oc2ccccc2)ccc1N1C(=O)Nc2c(C(=O)NCCN3CCOC[C@H]3C)sc3nccc1c23` [Example 296, (R)-5-(2-Methyl-4-phenoxyphenyl)-N-(2-(3-methylmorpholino)ethyl)-4-oxo-4,5-dihydro-3H-1-thia-3,5,8-triazaacenaphthylene-2-carboxamide] to `CN(C)C/C=C/C(=O)N1CCC[C@@H](NC(=O)c2sc3nccc4c3c2NC(=O)N4c2cccc(-c3ccccc3)c2)C1` [Example 573, (R,E)-5-([1,1′-Biphenyl]-3-yl)-N-(1-(4-(dimethylamino)but-2-enoyl)piperidin-3-yl)-4-oxo-4,5-dihydro-3H-1-thia-3,5,8-triazaacenaphthylene-2-carboxamide], the “BTK_I_binding pIC50” value rises from 6.1 to 6.6.

Same assay, conditions: unphosphorylated-BTK kinase domain, 60 minutes incubation, 50 nM Tracer 236; pIC50 = negative log of the IC50 in molar

In the case of `O=C(N[C@H]1CCN(C(=O)c2ccccc2)C1)c1sc2nccc3c2c1NC(=O)N3c1ccc(Oc2ccccc2)cc1` [Example 940, (S)—N-(1-benzoylpyrrolidin-3-yl)-4-oxo-5-(4-phenoxyphenyl)-4,5-dihydro-3H-1-thia-3,5,8-triazaacenaphthylene-2-carboxamide], the “BTK_I_binding pIC50” value is reported as 5.9.
